Tested on: H3K4 trimethylation activity in Kmt2d+/βGeo MEFs
Experiment: H3K4me3 indicator in murine embryonic fibroblasts (MEFs) from Kmt2d+/βGeo and Kmt2d+/+ mice
Type: cell-based, mouse
Conditions: FIG. 18H
Text: An H3K4 trimethylation reporter was also created (FIG. 5B). This reporter is based on the H3 tail on one end and the TBP associated factor III (TAFIII) […] on the other end; the TAFIII […] only identifies and binds to trimethylated K4 on H3. When the H3K4 site gets trimethylated, the TAFIII […] can bind to the modified H3 tail and bring the two parts of the separated GFP in close proximity. The activity of the epigenetic modification system can be quantified through fluorescence.
Epigenetic reporter alleles were synthesized (OriGene, Rockville, Md.) using published sequences for component elements (Baird et al. (1999) Proc. Natl. Acad. Sci. 96:11241-6; Souslova et al. (2007) BMC Biotechnol. 7:37). Single nucleotide mutations were created using the QuickChange Lightening kit (Agilent Technologies Inc, Santa Clara, Calif.). For H4ac indicator, K5R, K8R, K12R, K16R and K20R (MUT indicator) were introduced. For H3K4me3 indicator, K4Q and D890A/W891A and M882A (three separate constructs) were introduced. […] FACS data were analyzed using FlowJo (Tree Star Inc, Ashland, Oreg.). […]
Epigenetic reporter systems were created that monitor either H4 acetylation or H3K4 trimethylation machinery activity in an effort to determine whether there is an ongoing activity deficiency in cells from Kmt2d^+/βGeo mice (FIG. 18A). Both reporter alleles encode halves of green fluorescent protein separated by a flexible linker region (Baird et al. (1999) Proc. Natl. Acad. Sci. 96: 11241-6) with a histone tail and a histone reader at the N- and C-termini, respectively. When the histone tail corresponding to either H4 or H3 is modified by acetylation or methylation, respectively, GFP structure and function are reconstituted, as detected by a fluorescent readout (FIG. 18B). The acetyl reporter protein quantifies the activity of the acetylation machinery (acetylation of H4 specifically at sites K5, K8, K12, and K16) and comprises an H4 tail (residues 1-30) on one end and a TATA binding protein (TBP)-associated factor II (TAFII) bromodomain on the other end (FIG. 18A). […]

With `CC(C)[C@H](C(=O)Nc1ccc(C(=O)NO)cc1)c1ccccc1` [AR-42, (S)—N-hydroxy-4-(3-methyl-2-phenylbutanamido)benzamide] the “H3K4 trimethylation activity in Kmt2d+/βGeo cells upon treatment” value (Kmt2d+/βGeo MEFs, 22A, 23) was “enhanced” and the “H3K4me3 indicator activity in MEFs” value (both genotypes (Kmt2d+/+ and Kmt2d+/βGeo)) was “dose-dependent response”.

From patent publication US11357748B2, “Methods for treating mendelian disorders of the epigenetic machinery” (THE JOHNS HOPKINS UNIVERSITY, priority 2014, dated 2022)
